According to patent US12318388B2, “Pyrimidine derivatives for prevention and treatment of gram-negative bacterial infection, contamination and fouling” (UNIVERSITÉ DE LIÈGE, priority 2019, dated 2025):
Values after ≈ are worked out from the molar mass of the structure shown.

How the values were obtained:
[1] = system: Escherichia coli (ATCC 8739); experiment: Minimal Inhibitory Concentration (MIC) on Escherichia coli with or without PMBN, OD600 after O/N growth; assay type: cell-based; details: for Minimal inhibitory concentration With PMBN / MIC: E. coli (ATCC 8739); for Minimal inhibitory concentration With PMBN: together with PMBN at 40 μg/ml; for MIC: molecule alone
Description: The Minimal Inhibitory Concentration (MIC) of molecules 2329, 2412, 2452 and 2461 together with polymyxin B nonapeptide (PMBN) was determined on Escherichia coli (ATCC 8739) according to EUCAST (European Committee on Antimicrobial Susceptibility Testing) recommendations.
(§1) Briefly, a single colony grown on a Luria-Bertani Agar (LB) plate was resuspended and cultured in the LB medium overnight (O/N) in aerobic conditions (37° C. with 220 rpm shaking), next day a 1:50 inoculum in Mueller-Hinton broth (MHB) was incubated in aerobic conditions for 1h30 (OD=0.08-0.1) and an inoculum of 1:300 dilution, corresponding to 3×10^6 CFU/ml, was incubated in presence or absence of different concentrations of the molecules in 1% DMSO (vehicle) with or without Polymyxin B nonapeptide (PMBN) at 40 μg/ml. After O/N growth the OD of each culture was measured at 600 nm in a spectrophotometer (OD600). The MIC represents the concentration at which there is no visible growth of bacteria, i.e. ΔOD at 600 nm equal to zero wherein ΔOD is the difference between the resulting optical density (OD) with the molecule together with PMBN, and the optical density (OD) of the blank (blank is the medium) alone.
(§2) A single colony grown on an Lurian-Bertani (LB) agar plate is resuspended and cultured in LB medium overnight (O/N) in aerobic conditions (37° C. with 220 rpm shaking), next day a 1:50 inoculum in Mueller-Hinton broth (MHB) is incubated in aerobic conditions for 1h30 (OD=0.08-0.1) and an inoculum of 1:300 dilution, corresponding to 3×10^6 CFU/ml, is incubated in presence or absence of different concentrations of the tested molecules in 1% DMSO (vehicle) with or without PMBN at 40 μg/ml. After O/N growth the OD of each culture was measured at 600 nm (OD600) in a spectrophotometer (Victor 3-Perkin Elmer). The MIC represents the concentration at which there is no visible growth of bacteria, i.e. ΔOD at 600 nm equal to zero wherein ΔOD is the difference between the resulting optical density (OD) with the molecule together with PMBN, and the optical density (OD) of the blank (blank is the medium) alone.
as §1, with “cultured in LB medium” for “cultured in the LB medium”, “of the above-mentioned molecules in” for “of the molecules in”
as §2, with “a Luria-Bertani” for “an Lurian-Bertani”, “above-mentioned pyrazolopyrimidine molecule” for “tested molecules”, “alone. […]” for “alone.”

[2] = system: Pseudomonas aeruginosa (ATCC27853); experiment: Minimal Inhibitory Concentration (MIC) on Pseudomonas aeruginosa with or without PMBN; assay type: cell-based; details: Pseudomonas aeruginosa (ATCC 27853); for Minimal inhibitory concentration without PMBN: molecule alone; for Minimal inhibitory concentration With PMBN: together with PMBN at 0.5 μg/ml
Description: A single colony grown on an tryptic soy agar plate is resuspended and cultured in tryptic soy broth medium overnight (O/N) in aerobic conditions (37° C. with 220 rpm shaking), next day a 1:100 inoculum in Mueller-Hinton broth (MHB) is incubated in aerobic conditions for 3h (OD=0.5-0.6) and an inoculum of 1:1000 dilution, corresponding to 1-3×10^5 CFU/ml, is incubated in presence or absence of different concentrations of the tested molecules in 1% DMSO (vehicle) with or without PMBN at 0.5 μg/ml. After 28-30h growth the OD of each culture was measured at 600 nm (OD600) in a spectrophotometer (Victor 3-Perkin Elmer). The MIC represents the concentration at which there is no visible growth of bacteria, i.e. ΔOD at 600 nm equal to zero (blank is the medium alone) wherein ΔOD is the difference between the resulting optical density (OD) with the molecule together with PMBN, and the optical density (OD) of the blank (blank is the medium) alone.

[3] = 100 μM together with 40 μg/ml PMBN
[4] = with 10 to 50 µg/ml PMBN, particularly 40 μg/ml

SMILES | MIC [1] [µM] | MIC ([1]; Escherichia coli, ATCC8739) [µM] | Antibacterial activity against E. coli (ATCC8739) [1] | OD600 nm after O/N growth of Escherichia coli (FIG. 4) [1, 3] | Minimal inhibitory concentration With PMBN [1] [µM] | Activity against Escherichia coli (ATCC 8739), conclusion [1, 4] | Minimal inhibitory concentration without PMBN [2] [µM] | Minimal inhibitory concentration With PMBN [2] [µM] | OD600 nm after O/N growth of Escherichia coli (FIG. 4) ([1]; 20 μM with 40 μg/ml PMBN) | Activity against Escherichia coli (ATCC 8739), conclusion ([1]; with 40 μg/ml PMBN) | OD600 nm after O/N growth of Escherichia coli (FIG. 4) ([1]; 50 μM with 40 μg/ml PMBN)
CCCCOc1nc(NC2CC2)c2ncn(Cc3c(F)ccc(C)c3F)c2n1 [molecule 38z″, 2-Butoxy-N-cyclopropyl-9-(2,6-difluoro-3-methylbenzyl)-9H-purin-6-amine, reference compound] | – | – | no antibacterial activity | did not differ from vehicle control | > 100 | no antibacterial activity | – | – | – | – | –
CCCCOc1nc(NCc2ccccc2)c2ncn(Cc3c(F)ccc(C)c3F)c2n1 [molecule 39z″, N-Benzyl-2-butoxy-9-(2,6-difluoro-3-methylbenzyl)-9H-purin-6-amine, reference compound] | – | – | no antibacterial activity | did not differ from vehicle control | > 100 | no antibacterial activity | – | – | – | – | –
CCCCCOc1nc(NCc2ccccc2)c2ncn(Cc3c(F)ccc(C)c3F)c2n1 [molecule 40z″, N-benzyl-9-(2,6-difluoro-3-methylbenzyl)-2(pentyloxy)-9H-purin-6-amine, reference compound] | – | – | no antibacterial activity | did not differ from vehicle control | > 100 | no antibacterial activity | – | – | – | – | –
CCCCSc1nc(NCc2c(F)ccc(C)c2F)c2ncn(Cc3c(F)ccc(C)c3F)c2n1 [molecule 41z″, 2-(Butylthio)-N,9-bis(2,6-difluoro-3-methylbenzyl)-9H-purin-6-amine, reference compound] | – | – | no antibacterial activity | did not differ from vehicle control | > 100 | no antibacterial activity | – | – | – | – | –
C=CCn1cnc2c(N[C@@H]3C[C@H]3c3ccc(F)c(F)c3)nc(SCCC)nc21 [molecule 2412, 9-allyl-N-((1R,2S)-2-(3,4-difluorophenyl)cyclopropyl)-2-(propylthio)-9H-purin-6-amine] | >100 | > 100 | – | – | 50 (≈ 20.1 µg/mL) | – | >100 | 50 (≈ 20.1 µg/mL) | – | – | –
C#CCn1cnc2c(N[C@@H]3C[C@H]3c3ccc(F)c(F)c3)nc(SCCC)nc21 [molecule 2452, N-((1R,2S)-2-(3,4-difluorophenyl)cyclopropyl)-9-(prop-2-yn-1-yl)-2-(propylthio)-9H-purin-6-amine] | >100 | > 100 | – | – | 10 (≈ 3.99 µg/mL) | – | >100 | 50 (≈ 20 µg/mL) | – | – | –

The next lines start with results.

MIC [1] [µM] | MIC ([1]; Escherichia coli, ATCC8739) [µM] | SMILES | Antibacterial activity against E. coli (ATCC8739) [1] | OD600 nm after O/N growth of Escherichia coli (FIG. 4) [1, 3] | Minimal inhibitory concentration With PMBN [1] [µM] | Activity against Escherichia coli (ATCC 8739), conclusion [1, 4] | Minimal inhibitory concentration without PMBN [2] [µM] | Minimal inhibitory concentration With PMBN [2] [µM] | OD600 nm after O/N growth of Escherichia coli (FIG. 4) ([1]; 20 μM with 40 μg/ml PMBN) | Activity against Escherichia coli (ATCC 8739), conclusion ([1]; with 40 μg/ml PMBN) | OD600 nm after O/N growth of Escherichia coli (FIG. 4) ([1]; 50 μM with 40 μg/ml PMBN)
>100 | > 100 | CCCSc1nc(N[C@@H]2C[C@H]2c2ccc(F)c(F)c2)c2ncn([C@@H]3C[C@H](O)[C@@H](O)[C@H]3O)c2n1 [molecule 2461, (1S,2R,3S,4R)-4-(6-(((1R,2S)-2-(3,4-difluorophenyl)cyclopropyl)amino)-2-(propylthio)-9H-purin-9-yl)cyclopentane-1,2,3-triol] | – | – | 10 (≈ 4.78 µg/mL) | – | >100 | 50 (≈ 23.9 µg/mL) | killed all bacteria | bactericidal activity | –
>100 | > 100 | CCn1cnc2c(N[C@@H]3C[C@H]3c3ccc(F)c(F)c3)nc(SC)nc21 [molecule 2511, N-((1R,2S)-2-(3,4-difluorophenyl)cyclopropyl)-9-ethyl-2-(methylthio)-9H-purin-6-amine] | – | – | 50 (≈ 18.1 µg/mL) | – | – | – | – | bactericidal activity | killed all bacteria
>100 | > 100 | CCSc1nc(N[C@@H]2C[C@H]2c2ccc(F)c(F)c2)c2ncn(C)c2n1 [molecule 2525, N-((1R,2S)-2-(3,4-difluorophenyl)cyclopropyl)-2-(ethylthio)-9-methyl-9H-purin-6-amine] | – | – | 50 (≈ 18.1 µg/mL) | – | – | – | – | bactericidal activity | killed all bacteria
>100 | > 100 | CSc1nc(N[C@@H]2C[C@H]2c2ccc(F)c(F)c2)c2cnn(C)c2n1 [molecule 2539, N-((1R,2S)-2-(3,4-difluorophenyl)cyclopropyl)-1-methyl-6-(methylthio)-1H-pyrazolo[3,4-d]pyrimidin-4-amine] | – | – | 25 (≈ 8.68 µg/mL) | – | – | – | – | bactericidal activity | killed all bacteria
>100 | > 100 | CCCCSc1nc(N[C@@H]2C[C@H]2c2ccc(F)c(F)c2)c2ncn(C)c2n1 [molecule 2833, 2-(butylthio)-N-((1R,2S)-2-(3,4-difluorophenyl)cyclopropyl)-9-methyl-9H-purin-6-amine] | – | – | 90 (≈ 35.1 µg/mL) | – | – | – | – | – | –
